Assays:
[1] = system: Escherichia coli; test: Microbicidal activity according to EN1040; assay type: cell-based; conditions: 1000 ppm, room temperature, vs growth control in water
Procedure: (§1) A bacterial suspension with a cell count of about 10^7 cfu/ml is contacted with appropriate concentrations of the specific substances and the residual cell count determined after incubation times of 5 and 30 minutes at room temperature under continuous stirring. Staphylococcus aureus was tested as gram+ and Escherichia coli as gram− organism. The results are given as a log reduction in comparison to a growth control in water.

[2] = system: Staphylococcus aureus; test: Microbicidal activity according to EN1040; assay type: cell-based; conditions: 1000 ppm, room temperature, vs growth control in water
Procedure: as §1

[3] = system: A. niger ATCC 16404; test: Microbicidal activity under conditions similar to a preservative challenge test; assay type: cell-based; conditions: 0.5%, inoculum 10^5 cfu/ml
Procedure: as §1
(§2) The test procedure of Example 7 is used, with an inoculum concentration of 10^5 cfu/ml and incubation times of 48 and 72 hours; figures given as log reduction.

[4] = system: C. albicans ATCC 10231; test: as above; assay type: cell-based; conditions: 0.5%, inoculum 10^5 cfu/ml
Procedure: as §1, §2

[5] = system: E. coli ATCC 10536; test: as above; assay type: cell-based; conditions: 0.5%, inoculum 10^5 cfu/ml
Procedure: as §1, §2

[6] = system: P. aeruginosa ATCC 15442; test: as above; assay type: cell-based; conditions: 0.5%, inoculum 10^5 cfu/ml
Procedure: as §1, §2

[7] = system: S. aureus ATCC 6538; test: as above; assay type: cell-based; conditions: 0.5%, inoculum 10^5 cfu/ml
Procedure: as §1, §2

[8] = system: Aspergillus niger; test: Fungicidal activity according to EN12175; assay type: cell-based; conditions: spores about 10^6 cfu/ml, vs water control; for log reduction A. niger 30 min: 1%
Procedure: (§3) Fungicidal activity is tested according to EN12175. A fungal spore suspension with a spore cell count of about 10^6 cfu/ml is contacted with appropriate concentrations of the specific substances and the residual spore cell count determined after incubation times of 30 and 60 minutes at room temperature under continuous stirring. Penicillium funiculosum, Aspergillus niger and Aureobasidium pullulans are tested as important mold strains. The results are given as a log reduction at each incubation time in comparison to a water control.

[9] = system: Aureobasidium pullulans; test: Fungicidal activity according to EN12175; assay type: cell-based; conditions: spores about 10^6 cfu/ml, vs water control; for log reduction A. pullulans 30 min: 1%
Procedure: as §3

[10] = system: Penicillium funiculosum; test: Fungicidal activity according to EN12175; assay type: cell-based; conditions: spores about 10^6 cfu/ml, vs water control; for log reduction P. funiculosum 30 min: 1%
Procedure: as §3

[11] = system: A. niger; test: Preservative challenge test in cosmetic emulsions (EurPh and USP); assay type: cell-based; conditions: 0.5% w/w
Procedure: (§4) A preservative challenge test is conducted for representative cosmetic formulations according to the conditions of the EurPh and USP. The compound concentration in the formulations is 0.5% w/w. The Inoculum concentration of the five different strains is 2.1-4.2×10^5 cfu/ml, incubation time according to EurPh. 2, 7, 14 and 28 days. Preservation is investigated in two different emulsion types, w/o and o/w.

[12] = system: C. albicans; test: as above; assay type: cell-based; conditions: 0.5% w/w
Procedure: as §4

[13] = system: E. coli; test: as above; assay type: cell-based; conditions: 0.5% w/w
Procedure: as §4

[14] = system: P. aerug.; test: as above; assay type: cell-based; conditions: 0.5% w/w
Procedure: as §4

[15] = system: S. aureus; test: as above; assay type: cell-based; conditions: 0.5% w/w
Procedure: as §4

[16] = Formulation of stable w/o or o/w emulsions; assay type: physicochemical; conditions: comparable concentrations (0.5% w/w) in the w/o and o/w emulsions of Example 10

## CCCCOC(=O)C[n+]1ccn(C)c1.[Br-] [Ex 3]
[1]
  log reduction E. coli 5 min.: <1 log
  log reduction E. coli 30 min.: <1 log
[2]
  log reduction S. aureus 5 min.: <1 log
  log reduction S. aureus 30 min.: <1 log
[3]
  log reduction A. niger ATCC 16404 48 h: <1 log
  log reduction A. niger ATCC 16404 72 h: <1 log
[4]
  log reduction C. albicans ATCC 10231 48 h: 1.4 log
  log reduction C. albicans ATCC 10231 72 h: 1.7 log
[5]
  log reduction E. coli ATCC 10536 48 h: >3 log
  log reduction E. coli ATCC 10536 72 h: >3 log
[6]
  log reduction P. aeruginosa ATCC 15442 48 h: >3 log
  log reduction P. aeruginosa ATCC 15442 72 h: >3 log
[7]
  log reduction S. aureus ATCC 6538 48 h: >3 log
  log reduction S. aureus ATCC 6538 72 h: >3 log
[8]
  log reduction A. niger 30 min: <1 log
  log reduction A. niger 1 h: <1 log
[9]
  log reduction A. pullulans 30 min: <1 log
  log reduction A. pullulans 1 h: <1 log
[10]
  log reduction P. funiculosum 30 min: <1 log
  log reduction P. funiculosum 1 h: <1 log

## CCCCCCCCCCCCOC(=O)C[n+]1ccn(C)c1.[Br-] [Ex 4]
[1]
  log reduction E. coli 5 min.: >5 log
  log reduction E. coli 30 min.: >5 log
[2]
  log reduction S. aureus 5 min.: >5 log
  log reduction S. aureus 30 min.: >5 log
[3]
  log reduction A. niger ATCC 16404 48 h: 1.8 log
  log reduction A. niger ATCC 16404 72 h: 2.3 log
[4]
  log reduction C. albicans ATCC 10231 48 h: >3 log
  log reduction C. albicans ATCC 10231 72 h: >3 log
[5]
  log reduction E. coli ATCC 10536 48 h: >3 log
  log reduction E. coli ATCC 10536 72 h: >3 log
[6]
  log reduction P. aeruginosa ATCC 15442 48 h: >3 log
  log reduction P. aeruginosa ATCC 15442 72 h: >3 log
[7]
  log reduction S. aureus ATCC 6538 48 h: >3 log
  log reduction S. aureus ATCC 6538 72 h: >3 log
[8]
  log reduction A. niger 30 min: 2.1 log
  log reduction A. niger 1 h: >4 log
[9]
  log reduction A. pullulans 30 min: >4 log
  log reduction A. pullulans 1 h: >4 log
[10]
  log reduction P. funiculosum 30 min: <1 log
  log reduction P. funiculosum 1 h: 1.9 log
[11]; O/W emulsion, 2 days
  Log Reduction A. niger: 0 log
[11]; O/W emulsion, 7 days
  Log Reduction A. niger: 0 log
[11]; O/W emulsion, 14 days
  Log Reduction A. niger: 0 log
[11]; O/W emulsion, 28 days
  Log Reduction A. niger: 0 log
[11]; W/O emulsion, 2 days
  Log Reduction A. niger: 0 log
[11]; W/O emulsion, 7 days
  Log Reduction A. niger: 1 log
[11]; W/O emulsion, 14 days
  Log Reduction A. niger: 2 log
[11]; W/O emulsion, 28 days
  Log Reduction A. niger: 2 log
[12]; O/W emulsion, 2 days
  Log Reduction C. albicans: 0 log
[12]; O/W emulsion, 7 days
  Log Reduction C. albicans: 0 log
[12]; O/W emulsion, 14 days
  Log Reduction C. albicans: 0 log
[12]; O/W emulsion, 28 days
  Log Reduction C. albicans: 0 log
[12]; W/O emulsion, 2 days
  Log Reduction C. albicans: 2 log
[12]; W/O emulsion, 7 days
  Log Reduction C. albicans: 3 log
[12]; W/O emulsion, 14 days
  Log Reduction C. albicans: 3 log
[12]; W/O emulsion, 28 days
  Log Reduction C. albicans: 5 log
[13]; O/W emulsion, 2 days
  Log Reduction E. coli: 1 log
[13]; O/W emulsion, 7 days
  Log Reduction E. coli: 1 log
[13]; O/W emulsion, 14 days
  Log Reduction E. coli: 2 log
[13]; O/W emulsion, 28 days
  Log Reduction E. coli: ≧4 log
[13]; W/O emulsion, 2 days
  Log Reduction E. coli: 6 log
[13]; W/O emulsion, 7 days
  Log Reduction E. coli: 6 log
[13]; W/O emulsion, 14 days
  Log Reduction E. coli: 6 log
[13]; W/O emulsion, 28 days
  Log Reduction E. coli: 6 log
[14]; O/W emulsion, 2 days
  Log Reduction P. aerug.: ≧4 log
[14]; O/W emulsion, 7 days
  Log Reduction P. aerug.: 5 log
[14]; O/W emulsion, 14 days
  Log Reduction P. aerug.: 5 log
[14]; O/W emulsion, 28 days
  Log Reduction P. aerug.: 5 log
[14]; W/O emulsion, 2 days
  Log Reduction P. aerug.: 5 log
[14]; W/O emulsion, 7 days
  Log Reduction P. aerug.: 5 log
[14]; W/O emulsion, 14 days
  Log Reduction P. aerug.: 5 log
[14]; W/O emulsion, 28 days
  Log Reduction P. aerug.: 5 log
[15]; O/W emulsion, 2 days
  Log Reduction S. aureus: 4 log
[15]; O/W emulsion, 7 days
  Log Reduction S. aureus: 6 log
[15]; O/W emulsion, 14 days
  Log Reduction S. aureus: 6 log
[15]; O/W emulsion, 28 days
  Log Reduction S. aureus: 6 log
[15]; W/O emulsion, 2 days
  Log Reduction S. aureus: 6 log
[15]; W/O emulsion, 7 days
  Log Reduction S. aureus: 6 log
[15]; W/O emulsion, 14 days
  Log Reduction S. aureus: 6 log
[15]; W/O emulsion, 28 days
  Log Reduction S. aureus: 6 log

## benzalkonium chloride
[16]
  stability of w/o or o/w emulsions formulated with the agent: No stable w/o or o/w emulsions could be formulated
